In patent publication US11825838B2, “Tricyclic carboxamides for controlling arthropods” (Bayer CropScience Aktiengesellschaft, priority 2017, dated 2023):

Columns and labels:
Format in all cases: in vivo
Myzus persicae = Myzus persicae spray test (MYZUPE)
Procedure: Myzus persicae—Spray Test
(§1) To produce a suitable active ingredient formulation, 1 part by weight of active ingredient is dissolved with the specified parts by weight of solvent and made up to the desired concentration with water containing an emulsifier concentration of 1000 ppm. To produce further test concentrations, the formulation is diluted with emulsifier-containing water.
Discs of Chinese cabbage leaves (Brassica pekinensis) infested by all stages of the green peach aphid (Myzus persicae) are sprayed with an active compound preparation of the desired concentration.
After 5 days, the efficacy in % is determined. 100% means that all the aphids have been killed; 0% means that no aphids have been killed.
Myzus Persicae—Spray Test (MYZUPE)
as §1, with “compound” for “ingredient”
Discs of Chinese cabbage leaves (Brassica pekinensis) infested with all stages of the green peach aphid (Myzus persicae) are sprayed with an active compound formulation of the desired concentration.
After the desired time, the efficacy in % is determined. 100% means that all the aphids have been killed; 0% means that no aphids have been killed.

Phaedon cochleariae = Phaedon cochleariae spray test (PHAECO); details: for efficacy / pest or weed control at 100 g/ha: application rate 100 g/ha, spray, after 7 days; for pest or weed control at 100 g/ha: read-out: efficacy
Procedure: Phaedon cochleariae—Spray Test
as §1
After 7 days, the efficacy in % is determined. 100% means that all the beetle larvae have been killed; 0% means that no beetle larvae have been killed.
Phaedon cochleariae—Spray Test (PHAECO)
as §1, with “compound” for “ingredient”
Discs of Chinese cabbage leaves (Brassica pekinensis) are sprayed with an active compound formulation of the desired concentration and, after drying, populated with larvae of the mustard beetle (Phaedon cochleariae).
After the desired time, the efficacy in % is determined. 100% means that all the beetle larvae have been killed; 0% means that no beetle larvae have been killed.

Spodoptera frugiperda = Spodoptera frugiperda spray test (SPODFR); details: for efficacy / pest or weed control at 100 g/ha: application rate 100 g/ha, spray, after 7 days; for pest or weed control at 100 g/ha: read-out: efficacy
Procedure: Spodoptera frugiperda—Spray Test
as §1
Leaf discs of maize (Zea mays) are sprayed with an active ingredient formulation of the desired concentration and, after drying, populated with caterpillars of the armyworm (Spodoptera frugiperda).
After 7 days, the efficacy in % is determined. 100% means that all the caterpillars have been killed; 0% means that no caterpillar has been killed.
Spodoptera frugiperda—Spray Test (SPODFR)
as §1, with “compound” for “ingredient”
Leaf discs of maize (Zea mays) are sprayed with an active compound formulation of the desired concentration and, after drying, populated with caterpillars of the armyworm (Spodoptera frugiperda).
After the desired time, the efficacy in % is determined. 100% means that all the caterpillars have been killed; 0% means that no caterpillar has been killed.

Tetranychus urticae = Tetranychus urticae spray test, OP-resistant (TETRUR); details: for efficacy: spray, after 6 days
Procedure: Tetranychus urticae—Spray Test, OP-Resistant
as §1
Discs of bean leaves (Phaseolus vulgaris) infested with all stages of the greenhouse red spider mite (Tetranychus urticae) are sprayed with an active compound preparation of the desired concentration.
After 6 days, the efficacy in % is determined. 100% means that all the spider mites have been killed; 0% means that no spider mites have been killed.
Tetranychus urticae—Spray Test; OP-Resistant (TETRUR)
as §1, with “compound” for “ingredient”
Discs of bean leaves (Phaseolus vulgaris) infested with all stages of the greenhouse red spider mite (Tetranychus urticae) are sprayed with an active compound formulation of the desired concentration.
After the desired time, the efficacy in % is determined. 100% means that all the spider mites have been killed; 0% means that no spider mites have been killed.

Rhipicephalus sanguineus = Rhipicephalus sanguineus in vitro contact test with adult brown dog ticks; details: application rate 5 μg/cm^2 (=500 g/ha), after 48 h, adult dog ticks dead or moribund
Procedure: Rhipicephalus sanguineus—In Vitro Contact Tests with Adult Brown Dog Ticks
For the coating of the test tubes, 9 mg of active ingredient are first dissolved in 1 ml of acetone p.a. and then diluted to the desired concentration with acetone p.a. 250 μl of the solution are distributed homogeneously on the inner walls and the base of a 25 ml glass tube by turning and rocking on an orbital shaker (rocking rotation at 30 rpm for 2 h). With 900 ppm of active ingredient solution and internal surface area 44.7 cm^2, given homogeneous distribution, an area-based dose of 5 μg/cm^2 is achieved.
After the solvent has evaporated off, the tubes are populated with 5-10 adult dog ticks (Rhipicephalus sanguineus), sealed with a perforated plastic lid and incubated in a horizontal position in the dark at room temperature and ambient humidity. After 48 h, efficacy is determined. To this end, the ticks are knocked to the base of the tube and incubated on a hotplate at 45-50° C. for not more than 5 min. Ticks which remain motionless on the base or move in such an uncoordinated manner that they are unable to deliberately avoid the heat by climbing upwards are considered to be dead or moribund.
An efficacy of 100% means that all the ticks were dead or moribund. 0% efficacy means that none of the ticks were harmed.

[1] = tested on: cattle ticks (Boophilus microplus) Parkhurst strain, SP-resistant; test: Boophilus microplus dip test; details: application rate 100 ppm, assessed after 7 days by laying of fertile eggs
Procedure: Boophilus microplus—Dip Test
Test animals: cattle ticks (Boophilus microplus) Parkhurst strain, SP-resistant
(§2) Solvent: dimethyl sulfoxide
10 mg of active ingredient are dissolved in 0.5 ml of dimethyl sulfoxide. To produce a suitable formulation, the active ingredient solution is diluted with water to the concentration desired in each case. This active ingredient formulation is pipetted into tubes. 8-10 engorged adult female cattle ticks (Boophilus microplus) are transferred into a further tube with holes. The tube is immersed into the active ingredient formulation, and all the ticks are completely wetted. After the liquid has run out, the ticks are transferred on filter discs into plastic dishes and stored in a climate-controlled room.
(§3) Efficacy is assessed after 7 days by laying of fertile eggs. Eggs which are not visibly fertile are stored in a climate-controlled cabinet until the larvae hatch after about 42 days. An efficacy of 100% means that none of the ticks has laid any fertile eggs; 0% means that all the eggs are fertile.

Boophilus microplus = Boophilus microplus injection test; details: application rate 20 μg/animal, assessed after 7 days by laying of fertile eggs
Procedure: Boophilus microplus—Injection Test
as §2
To produce a suitable active compound preparation, 10 mg of active compound are mixed with 0.5 ml of solvent and the concentrate is diluted to the desired concentration with solvent.
1 μl of the active ingredient solution is injected into the abdomen of 5 engorged adult female cattle ticks (Boophilus microplus). The animals are transferred into dishes and kept in a climate-controlled room.
as §3

Ctenocephalides felis = Ctenocephalides felis oral test; details: application rate 100 ppm in citrated cattle blood, after 2 days
Procedure: Ctenocephalides felis—Oral Test
as §2
To produce a suitable active ingredient formulation, 10 mg of active ingredient are mixed with 0.5 ml of dimethyl sulfoxide. Dilution with citrated cattle blood gives the desired concentration.
About 20 unfed adult cat fleas (Ctenocephalides felis) are placed into a chamber which is closed at the top and bottom with gauze. A metal cylinder whose bottom end is closed with parafilm is placed onto the chamber. The cylinder contains the blood/active ingredient formulation, which can be imbibed by the fleas through the parafilm membrane.
After 2 days, the rate of extermination in % is determined. 100% means that all of the fleas have been killed; 0% means that none of the fleas have been killed.

Lucilia cuprina = Lucilia cuprina test; details: application rate 100 ppm, L1 larvae, after 2 days
Procedure: as §2
(§4) To produce a suitable active ingredient formulation, 10 mg of active ingredient are mixed with 0.5 ml of dimethyl sulfoxide, and the concentrate is diluted with water to the desired concentration.
About 20 L1 larvae of the Australian sheep blowfly (Lucilia cuprina) are transferred into a test vessel containing minced horsemeat and the active compound preparation of the desired concentration.
After 2 days, the rate of extermination in % is determined. 100% means that all the larvae have been killed; 0% means that no larvae have been killed.

Musca domestica = Musca domestica test; details: application rate 100 ppm, adult houseflies, after 2 days
Procedure: as §2, §4
Vessels containing a sponge treated with sugar solution and the active ingredient formulation of the desired concentration are populated with 10 adult houseflies (Musca domestica).
After 2 days, the rate of extermination in % is determined. 100% means that all of the flies have been killed; 0% means that none of the flies have been killed.

SMILES | efficacy (Boophilus microplus) [%] | efficacy (rate of extermination) (Ctenocephalides felis) [%] | efficacy (rate of extermination) (Lucilia cuprina) [%] | efficacy (rate of extermination) (Musca domestica) [%] | efficacy (Phaedon cochleariae) [%] | efficacy (Spodoptera frugiperda) [%] | other results
CS(=O)(=O)NC(=O)c1csc(-c2cnn(-c3cccnc3)c2)n1 [Example No. 36 WO2012/000896, reference compound] | – | – | – | – | – | – | Emax at 100 g/ha (Myzus persicae; Myzus persicae, 144 h, MYZUPE, 100 g ai/ha, 6 dat, read-out: % efficacy dat): 0%; Emax at 500 g/ha (Phaedon cochleariae; Phaedon cochleariae, 168 h, PHAECO, 500 g ai/ha, 7 dat, read-out: % efficacy dat): 0%; Emax at 500 g/ha (Spodoptera frugiperda; Spodoptera frugiperda, 168 h, SPODFR, 500 g ai/ha, 7 dat, read-out: % efficacy dat): 0%; Emax at 500 g/ha (Tetranychus urticae; Tetranychus urticae, 144 h, TETRUR, 500 g ai/ha, 6 dat, read-out: % efficacy dat): 0%
N#CC1(NC(=O)c2cc(-c3cnn(-c4c(Cl)cc(C(F)(C(F)(F)F)C(F)(F)F)cc4Cl)c3)sc2Br)CC1 [I-T1-2] | 100 | 100 | 100 | 100 | 100 | 100 | efficacy (Rhipicephalus sanguineus): 100%; efficacy [1]: 100%; efficacy (Myzus persicae; application rate 100 g/ha, spray, after 5 days): 100%; efficacy (Tetranychus urticae; application rate 20 g/ha): 90%
Cn1cc(-c2cnn(-c3c(Cl)cc(C(F)(C(F)(F)F)C(F)(F)F)cc3Cl)c2)cc1C(=O)NC1(C#N)CC1 [I-T1-4] | 100 | 100 | 100 | – | 100 | – | –
N#CC1(NC(=O)c2csc(-c3cnn(-c4c(Cl)cc(C(F)(C(F)(F)F)C(F)(F)F)cc4Cl)c3)n2)CC1 [I-T1-5, N-(1-cyanocyclopropyl)-2-{1-[2,6-dichloro-4-(1,1,1,2,3,3,3-heptafluoropropan-2-yl)phenyl]-1H-pyrazol-4-yl}-1,3-thiazole-4-carboxamide] | – | 100 | 80 | 90 | – | – | pest or weed control at 100 g/ha (Phaedon cochleariae; Phaedon cochleariae, 168 h): 100%
O=C(NCc1ccccc1)c1cc(-c2cnn(-c3c(Cl)cc(C(F)(C(F)(F)F)C(F)(F)F)cc3Cl)c2)sc1Br [I-T1-6] | 100 | 100 | 95 | – | – | 100 | –
O=C(NC1CC1)c1nc(-c2cnn(-c3c(Cl)cc(C(F)(C(F)(F)F)C(F)(F)F)cc3Cl)c2)sc1Cl [I-T1-7] | 100 | – | – | – | 83 | – | –
O=C(NC1CC1)c1csc(-c2cnn(-c3c(Cl)cc(C(F)(C(F)(F)F)C(F)(F)F)cc3Cl)c2)n1 [I-T1-8] | – | 100 | 80 | – | 83 | – | –
O=C(NC1CC1)c1cc(-c2cnn(-c3c(Cl)cc(C(F)(C(F)(F)F)C(F)(F)F)cc3Cl)c2)sc1I [I-T1-14] | 100 | 100 | 100 | 100 | 100 | 100 | efficacy (Rhipicephalus sanguineus): 100%; efficacy [1]: 100%; efficacy (Tetranychus urticae; application rate 100 g/ha): 100%
N#CC1(NC(=O)c2cc(-c3cnn(-c4c(Cl)cc(C(F)(C(F)(F)F)C(F)(F)F)cc4Cl)c3)sc2I)CC1 [I-T1-15] | 100 | 100 | 100 | 100 | 100 | 100 | efficacy (Rhipicephalus sanguineus): 80%; efficacy (Tetranychus urticae; application rate 20 g/ha): 90%; efficacy (Tetranychus urticae; application rate 100 g/ha): 100%
N#CC1(NC(=O)c2cc(-c3cnn(-c4c(Cl)cc(C(F)(C(F)(F)F)C(F)(F)F)cc4Cl)c3)sc2Cl)CC1 [I-T1-17, 2-chloro-N-(1-cyanocyclopropyl)-5-{1-[2,6-dichloro-4-(1,1,1,2,3,3,3-heptafluoropropan-2-yl)phenyl]-1H-pyrazol-4-yl}thiophene-3-carboxamide] | – | – | – | – | – | – | pest or weed control at 100 g/ha (Phaedon cochleariae; Phaedon cochleariae, 168 h): 100%; pest or weed control at 100 g/ha (Spodoptera frugiperda; Spodoptera frugiperda, 168 h): 100%; efficacy (Tetranychus urticae; application rate 20 g/ha): 100%; efficacy (Tetranychus urticae; application rate 100 g/ha): 100%
CN(C(=O)c1cc(-c2cnn(-c3c(Cl)cc(C(F)(C(F)(F)F)C(F)(F)F)cc3Cl)c2)sc1Cl)C1(C#N)CC1 [I-T1-18, 2-chloro-N-(1-cyanocyclopropyl)-5-{1-[2,6-dichloro-4-(1,1,1,2,3,3,3-heptafluoropropan-2-yl)phenyl]-1H-pyrazol-4-yl}-N-methylthiophene-3-carboxamide] | – | – | – | – | – | – | pest or weed control at 100 g/ha (Phaedon cochleariae; Phaedon cochleariae, 168 h): 100%; pest or weed control at 100 g/ha (Spodoptera frugiperda; Spodoptera frugiperda, 168 h): 100%
